Laboratory results from EP4631959A2, “NOVEL MINIGASTRIN-DERIVED CHOLECYSTOKININ 2 RECEPTOR BINDING MOLECULES FOR IMAGING AND TARGETED RADIOTHERAPY” (priority 2022, dated 2024).
Read-outs that look alike come from different tables or passages of the source. Starred links: 1 amine or outer side, 2 acyl side, 3 side chain; linkers in the order of their positions; H or OH if unused. Non-standard residues stand in square brackets, D forms with d. Residues, ends and D or L forms follow the SMILES beside them. *: point of attachment. DOTAGA = O=C(O)CN1CCN(CC(=O)O)CCN(C(CCC(=O)*)C(=O)O)CCN(CC(=O)O)CC1; Benzoyl(4-SiFtBu2) = CC(C)(C)[Si](F)(c1ccc(C(=O)*)cc1)C(C)(C)C; DOTA = O=C(O)CN1CCN(CC(=O)O)CCN(CC(=O)*)CCN(CC(=O)O)CC1; X4 = CC(C)(C)[Si](O)(c1ccc(C(=O)*)cc1)C(C)(C)C; d(γGlu) = O=C(O)[C@@H](CCC(=O)[*:2])N[*:1]; 1Nal = N[C@@H](Cc1cccc2ccccc12)C(=O)O; Hyp = O=C(O)[C@@H]1C[C@@H](O)CN1; NMeNle = CCCC[C@H](NC)C(=O)O; PEG4 = NCCOCCOCCOCCOCCC(=O)O; Nle = CCCC[C@H](N)C(=O)O; dDap = NC[C@@H](N)C(=O)O

Assays:
CCK-2R = molecular target: T1, CCK-2R (Rattus norvegicus, UniProt P30553); assay: Determination of IC50: CCK-2R affinity on AR4-2J cells, competition with [^177Lu]Lu-DOTA-PP-F11N; format: binding; details: for IC50: AR4-2J cells
T1 construct: The CCK-2R expressing rat pancreatic tumor cells AR4-2J; host or cells: AR4-2J rat pancreatic tumor cells
T1 sequence (P30553 1-452): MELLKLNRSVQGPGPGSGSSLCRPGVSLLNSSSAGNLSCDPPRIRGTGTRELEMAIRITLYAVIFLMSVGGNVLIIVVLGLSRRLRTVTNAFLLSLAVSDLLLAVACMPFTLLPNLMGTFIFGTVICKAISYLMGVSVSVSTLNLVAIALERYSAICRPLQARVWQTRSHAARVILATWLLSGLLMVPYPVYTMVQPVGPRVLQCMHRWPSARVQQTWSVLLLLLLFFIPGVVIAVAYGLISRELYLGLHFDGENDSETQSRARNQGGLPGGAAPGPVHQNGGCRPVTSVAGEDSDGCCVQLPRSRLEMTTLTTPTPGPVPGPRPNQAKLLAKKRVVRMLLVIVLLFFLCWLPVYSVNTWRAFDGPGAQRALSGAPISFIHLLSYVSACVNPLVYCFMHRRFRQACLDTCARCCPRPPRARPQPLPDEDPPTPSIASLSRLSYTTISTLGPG
Outline: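 Competitive displacement of 0.3 pmol/well [177Lu]Lu-DOTA-PP-F11N by compounds (10^-10 to 10^-4 M) on AR4-2J cells in BSA-supplemented medium, 3 h at 37 °C. Free label was collected from medium plus PBS rinse, and cell-bound label was recovered with 1 M NaOH, both measured by γ-counter. Each IC50 was determined twice, in triplicate.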

[1] = n-Octanol-PBS distribution coefficient (logD7.4); format: physicochemical; details: pH = 7.4, ^177Lu-labeled
Description: Approximately 1 MBq of the labeled tracer was dissolved in 1 mL of a 1/1 mixture (v/v) of phosphate buffered saline (PBS, pH = 7.4) and n-octanol in an Eppendorf tube (1.5 mL). After vigorous mixing of the suspension for 3 min at rt, the vial was centrifuged at 9,000 rpm for 5 min (Biofuge 15, Heraeus Sepatech, Osterode, Germany) and 200 µL aliquots of both layers were measured in a γ-counter. The experiment was repeated at least five times.

[2] = read-out: IC50 [nM] (n = 3), ^natLu-labeled, ^natLu-labeled

Row | SMILES | IC50 (CCK-2R; [2]) | logD7.4 (n ≥ 5), ^177Lu-labeled [1] | IC50 (CCK-2R; references ^natLu-labeled, other peptides without chelator, read-out: IC50 [nM] (n = 3)) | IC50 value, fold lower than [^natLu]Lu-DOTA-PP-F11N (CCK-2R; ^natLu-labeled)
1 | CCCC[C@@H](C(=O)N[C@@H](CC(=O)O)C(=O)N[C@@H](Cc1cccc2ccccc12)C(N)=O)N(C)C(=O)[C@H](Cc1c[nH]c2ccccc12)NC(=O)CNC(=O)[C@H](Cc1ccc(O)cc1)NC(=O)[C@H](C)NC(=O)CC[C@@H](NC(=O)CC[C@@H](NC(=O)CC[C@@H](NC(=O)CC[C@@H](NC(=O)CC[C@@H](NC(=O)CC[C@@H](NC(=O)CC[C@@H](NC(=O)CC[C@@H](NC(=O)[C@@H](CNC(=O)c1ccc([Si](F)(C(C)(C)C)C(C)(C)C)cc1)NC(=O)CN1CCN(CC(=O)O)CCN(CC(=O)O)CCN(CC(=O)O)CC1)C(=O)O)C(=O)O)C(=O)O)C(=O)O)C(=O)O)C(=O)O)C(=O)O)C(=O)O [DOTA-MG-SiFA-40, DOTA-dap(SiFA)-(γ-glu)8-MGS5] | 8.27 ± 0.35 nM | −1.83 ± 0.04 | – | –
2 | CCCC[C@H](NC(=O)[C@H](Cc1c[nH]c2ccccc12)NC(=O)CNC(=O)[C@H](Cc1ccc(O)cc1)NC(=O)[C@H](C)NC(=O)CC[C@@H](NC(=O)CC[C@@H](NC(=O)CC[C@@H](NC(=O)CC[C@@H](NC(=O)CC[C@@H](NC(=O)CC[C@@H](NC(=O)CC[C@@H](NC(=O)CCCNC(=O)[C@@H](CNC(=O)c1ccc([Si](F)(C(C)(C)C)C(C)(C)C)cc1)NC(=O)CN1CCN(CC(=O)O)CCN(CC(=O)O)CCN(CC(=O)O)CC1)C(=O)O)C(=O)O)C(=O)O)C(=O)O)C(=O)O)C(=O)O)C(=O)O)C(=O)N[C@@H](CC(=O)O)C(=O)N[C@@H](Cc1ccccc1)C(N)=O [DOTA-MG-SiFA-44, DOTA(-dap(SiFA)-GABA-(γ-glu)7-F11N] | 3.47 ± 0.27 nM | −2.01 ± 0.07 | – | –
3 | CCCC[C@H](NC(=O)[C@H](Cc1c[nH]c2ccccc12)NC(=O)CNC(=O)[C@H](Cc1ccc(O)cc1)NC(=O)[C@H](C)NC(=O)CC[C@@H](NC(=O)CC[C@@H](NC(=O)CC[C@@H](NC(=O)CC[C@@H](NC(=O)CC[C@@H](NC(=O)CC[C@@H](NC(=O)CCCNC(=O)CCCNC(=O)[C@@H](CNC(=O)c1ccc([Si](F)(C(C)(C)C)C(C)(C)C)cc1)NC(=O)CN1CCN(CC(=O)O)CCN(CC(=O)O)CCN(CC(=O)O)CC1)C(=O)O)C(=O)O)C(=O)O)C(=O)O)C(=O)O)C(=O)O)C(=O)N[C@@H](CC(=O)O)C(=O)N[C@@H](Cc1ccccc1)C(N)=O [DOTA-MG-SiFA-45, DOTA-dap(SiFA)-(GABA)2-(γ-glu)6-F11N] | 3.15 ± 0.12 nM | −1.98 ± 0.02 | – | –
4 | CCCC[C@H](NC(=O)[C@H](Cc1c[nH]c2ccccc12)NC(=O)CNC(=O)[C@H](Cc1ccc(O)cc1)NC(=O)[C@H](C)NC(=O)CC[C@@H](NC(=O)CC[C@@H](NC(=O)CC[C@@H](NC(=O)CC[C@@H](NC(=O)CC[C@@H](NC(=O)CCCNC(=O)CCCNC(=O)CCCNC(=O)[C@@H](CNC(=O)c1ccc([Si](F)(C(C)(C)C)C(C)(C)C)cc1)NC(=O)CN1CCN(CC(=O)O)CCN(CC(=O)O)CCN(CC(=O)O)CC1)C(=O)O)C(=O)O)C(=O)O)C(=O)O)C(=O)O)C(=O)N[C@@H](CC(=O)O)C(=O)N[C@@H](Cc1ccccc1)C(N)=O [DOTA-MG-SiFA-46, DOTA-dap(SiFA)-(GABA)3-(γ-glu)5-F11N] | 5.52 ± 0.25 nM | −2.09 ± 0.07 | – | –
5 | CCCC[C@H](NC(=O)[C@H](Cc1c[nH]c2ccccc12)NC(=O)CNC(=O)[C@H](Cc1ccc(O)cc1)NC(=O)[C@H](C)NC(=O)CC[C@@H](NC(=O)CCCNC(=O)CC[C@@H](NC(=O)CCCNC(=O)CC[C@@H](NC(=O)CCCNC(=O)CC[C@@H](NC(=O)CCCNC(=O)[C@@H](CNC(=O)c1ccc([Si](F)(C(C)(C)C)C(C)(C)C)cc1)NC(=O)CN1CCN(CC(=O)O)CCN(CC(=O)O)CCN(CC(=O)O)CC1)C(=O)O)C(=O)O)C(=O)O)C(=O)O)C(=O)N[C@@H](CC(=O)O)C(=O)N[C@@H](Cc1ccccc1)C(N)=O [DOTA-MG-SiFA-47, DOTA-dap(SiFA)-(GABA-γ-glu)4-F11N] | 6.77 ± 1.01 nM | −1.93 ± 0.08 | – | –
6 | CCCC[C@H](NC(=O)[C@H](Cc1c[nH]c2ccccc12)NC(=O)CNC(=O)[C@H](Cc1ccc(O)cc1)NC(=O)[C@H](C)NC(=O)CC[C@@H](NC(=O)CC[C@@H](NC(=O)CC[C@@H](NC(=O)CC[C@@H](NC(=O)CC[C@@H](NC(=O)CC[C@@H](NC(=O)CN1CCN(CC(=O)O)CCN(CC(=O)O)CCN(CC(=O)O)CC1)C(=O)O)C(=O)O)C(=O)O)C(=O)O)C(=O)O)C(=O)O)C(=O)N[C@@H](CC(=O)O)C(=O)N[C@@H](Cc1ccccc1)C(N)=O [DOTA-PP-γ-F11N, DOTA-γ-glu^1-γ-glu^2-γ-glu^3-γ-glu^4-γ-glu^5-γ-glu^6-Ala^7-Tyr^8-Gly^9-Trp^10-Nle^11-Asp^12-Phe^13-NH2, reference compound] ({DOTA-d(γGlu)-d(γGlu)-d(γGlu)-d(γGlu)-d(γGlu)-d(γGlu)}-AYGW[Nle]DF-NH2) | – | −4.38 ± 0.05 | 7.5 ± 0.5 nM | 1.7 fold
7 | CCCC[C@@H](C(=O)N[C@@H](CC(=O)O)C(=O)N[C@@H](Cc1cccc2ccccc12)C(N)=O)N(C)C(=O)[C@H](Cc1c[nH]c2ccccc12)NC(=O)CCOCCOCCOCCOCCNC(=O)CC[C@@H](NC(=O)[C@@H]1C[C@@H](O)CN1C(=O)[C@@H]1C[C@@H](O)CN1C(=O)[C@@H]1C[C@@H](O)CN1C(=O)[C@@H]1C[C@@H](O)CN1C(=O)[C@@H]1C[C@@H](O)CN1C(=O)[C@@H]1C[C@@H](O)CN1C(=O)CC[C@@H](NC(=O)[C@@H](CNC(=O)c1ccc([Si](O)(C(C)(C)C)C(C)(C)C)cc1)NC(=O)CN1CCN(CC(=O)O)CCN(CC(=O)O)CCN(CC(=O)O)CC1)C(=O)O)C(=O)O [DOTA-rhCCK-84.2, DOTA-dap(SiOH)-γ-glu-(Hyp)6-γ-glu-(PEG)3-Trp-(N-Me)Nle-Asp-1-Nal-NH2] ({DOTA}-[dDap](X4)[d(γGlu)][Hyp][Hyp][Hyp][Hyp][Hyp][Hyp][d(γGlu)][PEG4]W[NMeNle]D[1Nal]-NH2) | 13 ± 0.8 nM | −2.21 ± 0.08 | – | –
8 | CCCC[C@H](NC(=O)[C@H](Cc1c[nH]c2ccccc12)NC(=O)CNC(=O)[C@H](Cc1ccc(O)cc1)NC(=O)[C@H](C)NC(=O)[C@@H](CNC(=O)c1ccc([Si](F)(C(C)(C)C)C(C)(C)C)cc1)NC(=O)[C@@H](CCC(=O)O)NC(=O)[C@@H](CCC(=O)O)NC(=O)[C@@H](CCC(=O)O)NC(=O)[C@@H](CCC(=O)O)NC(=O)[C@@H](CCC(=O)O)NC(=O)[C@@H](CCC(=O)O)NC(=O)CCC(C(=O)O)N1CCN(CC(=O)O)CCN(CC(=O)O)CCN(CC(=O)O)CC1)C(=O)N[C@@H](CC(=O)O)C(=O)N[C@@H](Cc1ccccc1)C(N)=O (stereo partly shown) [DOTAGA-MG-SiFA-5, DOTAGA-glu-[dap(SiFA)^6]F11N] ({DOTAGA}-[dE][dE][dE][dE][dE][dE][dDap](Benzoyl(4-SiFtBu2))AYGW[Nle]DF-NH2) | 629 ± 48 nM | −1.71 ± 0.10 | – | –
9 | CCCC[C@H](NC(=O)[C@H](Cc1c[nH]c2ccccc12)NC(=O)CNC(=O)[C@H](Cc1ccc(O)cc1)NC(=O)[C@H](C)NC(=O)[C@@H](CCC(=O)O)NC(=O)[C@@H](CNC(=O)c1ccc([Si](F)(C(C)(C)C)C(C)(C)C)cc1)NC(=O)[C@@H](CCC(=O)O)NC(=O)[C@@H](CCC(=O)O)NC(=O)[C@@H](CCC(=O)O)NC(=O)[C@@H](CCC(=O)O)NC(=O)[C@@H](CCC(=O)O)NC(=O)CCC(C(=O)O)N1CCN(CC(=O)O)CCN(CC(=O)O)CCN(CC(=O)O)CC1)C(=O)N[C@@H](CC(=O)O)C(=O)N[C@@H](Cc1ccccc1)C(N)=O (stereo partly shown) [DOTAGA-MG-SiFA-6, DOTAGA-glu-[dap(SiFA)^5]F11N] ({DOTAGA}-[dE][dE][dE][dE][dE][dDap](Benzoyl(4-SiFtBu2))[dE]AYGW[Nle]DF-NH2) | 155 ± 18 nM | −1.95 ± 0.09 | – | –
